Measured values reported in US9149475B2, “Protein kinase C inhibitors and uses thereof” (Rigel Pharmaceuticals, Inc., priority 2009, dated 2015).
pIC50: −log10 of the molar value.

Test system: Human primary T cells
Assay: IL-2 ELISA, human primary T cell, anti-CD3+CD28+ (whole cell assay)
Type: cell-based
Conditions: Homo sapiens, T-cell, 24 h, human primary T cells stimulated with anti-CD3 + anti-CD28, 24 hours
Procedure, shortened: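 PBMC-derived T cells, pre-expanded on αCD3/αCD28 with IL-2 and then washed free of IL-2, were preincubated with compound for 1 hr at 37° C (100,000 cells/well). They were then stimulated on 1 μg/ml αCD3 plus 5 μg/ml αCD28 for 24 h, and supernatant IL-2 was measured by ELISA. The counter-assay used 0.5 ng/ml PMA plus 0.1 μM ionomycin instead.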

CC1(C)CC(Nc2nc(Nc3ccc(OC4CCN(CC(N)=O)CC4)c(OC(F)F)c3)ncc2F)CC(C)(C)N1 [III-36, 2-(4-(2-(Difluoromethoxy)-4-(5-fluoro-4-(2,2,6,6-tetramethylpiperidin-4-ylamino)pyrimidin-2-ylamino)phenoxy)piperidin-1-yl)acetamide]
pIC50: < 6.00

CN1C(C)(C)CC(Nc2nc(Nc3ccc(OC4CCN(CCO)CC4)c(OC(F)F)c3)ncc2F)CC1(C)C [III-37, 2-(4-(2-(Difluoromethoxy)-4-(5-fluoro-4-(1,2,2,6,6-pentamethylpiperidin-4-ylamino)pyrimidin-2-ylamino)phenoxy)piperidin-1-yl)ethanol]
pIC50: > 6.60

CC1(C)CC(Nc2nc(Nc3ccc(OC4CCN(CCO)CC4)c(OC(F)F)c3)ncc2F)CC(C)(C)N1 [III-38, 2-(4-(2-(Difluoromethoxy)-4-(5-fluoro-4-(2,2,6,6-tetramethylpiperidin-4-ylamino)pyrimidin-2-ylamino)phenoxy)piperidin-1-yl)ethanol]
pIC50: 6.00 to 6.30

CC(C)N1CC(Oc2ccc(Nc3ncc(F)c(NC4CC(C)(C)NC(C)(C)C4)n3)cc2OC(F)F)C1 [III-39, N2-(3-(Difluoromethoxy)-4-(1-isopropylazetidin-3-yloxy)phenyl)-5-fluoro-N4-(2,2,6,6-tetramethylpiperidin-4-yl)pyrimidine-2,4-diamine]
pIC50: 6.00 to 6.30

CC(C)N1CCCC(Oc2ccc(Nc3ncc(F)c(NC4CC(C)(C)NC(C)(C)C4)n3)cc2OC(F)F)CC1 (centres unmarked) [III-40, N2-(3-(difluoromethoxy)-4-(1-isopropylazepan-4-yloxy)phenyl)-5-fluoro-N4-(2,2,6,6-tetramethylpiperidin-4-yl)pyrimidine-2,4-diamine]
pIC50: 6.30 to 6.60

CC(C)N1CCCC(Oc2ccc(Nc3ncc(F)c(NC4CC(C)(C)N(C)C(C)(C)C4)n3)cc2OC(F)F)CC1 (centres unmarked) [III-41, N2-(3-(difluoromethoxy)-4-(1-isopropylazepan-4-yloxy)phenyl)-5-fluoro-N4-(1,2,2,6,6-pentamethylpiperidin-4-yl)pyrimidine-2,4-diamine]
pIC50: > 6.60

CC(=O)N1CCCC(Oc2ccc(Nc3ncc(F)c(NC4CC(C)(C)NC(C)(C)C4)n3)cc2OC(F)F)CC1 (centres unmarked) [III-42, 1-(4-(2-(difluoromethoxy)-4-(5-fluoro-4-(2,2,6,6-tetramethylpiperidin-4-ylamino)pyrimidin-2-ylamino)phenoxy)azepan-1-yl)ethanone]
pIC50: 6.00 to 6.30

CC(=O)N1CCCC(Oc2ccc(Nc3ncc(F)c(NC4CC(C)(C)N(C)C(C)(C)C4)n3)cc2OC(F)F)CC1 (centres unmarked) [III-43, 1-(4-(2-(difluoromethoxy)-4-(5-fluoro-4-(1,2,2,6,6-pentamethylpiperidin-4-ylamino)pyrimidin-2-ylamino)phenoxy)azepan-1-yl)ethanone]
pIC50: > 6.60

CC(=O)N1CCC(Oc2ccc(Nc3ncc(F)c(NC4CC(C)(C)NC(C)(C)C4)n3)cc2OC(F)F)CC1 [III-44, 1-(4-(2-(difluoromethoxy)-4-(5-fluoro-4-(2,2,6,6-tetramethylpiperidin-4-ylamino)pyrimidin-2-ylamino)phenoxy)piperidin-1-yl)ethanone]
pIC50: 6.00 to 6.30

CC(=O)N1CCC(Oc2ccc(Nc3ncc(F)c(NC4CC(C)(C)N(C)C(C)(C)C4)n3)cc2OC(F)F)CC1 [III-45, 1-(4-(2-(difluoromethoxy)-4-(5-fluoro-4-(1,2,2,6,6-pentamethylpiperidin-4-ylamino)pyrimidin-2-ylamino)phenoxy)piperidin-1-yl)ethanone]
pIC50: 6.30 to 6.60

CC1(C)CC(Nc2nc(Nc3ccc(OC(C)(C)CCN4CCCC4)c(F)c3)ncc2F)CC(C)(C)N1 [III-46, 5-fluoro-N2-(3-fluoro-4-(2-methyl-4-(pyrrolidin-1-yl)butan-2-yloxy)phenyl)-N4-(2,2,6,6-tetramethylpiperidin-4-yl)pyrimidine-2,4-diamine]
pIC50: 6.00 to 6.30

CN1C(C)(C)CC(Nc2nc(Nc3ccc(OC(C)(C)CCN4CCCC4)c(F)c3)ncc2F)CC1(C)C [III-47, 5-fluoro-N2-(3-fluoro-4-(2-methyl-4-(pyrrolidin-1-yl)butan-2-yloxy)phenyl)-N4-(1,2,2,6,6-pentamethylpiperidin-4-yl)pyrimidine-2,4-diamine]
pIC50: 6.00 to 6.30

CC1(C)CC(Nc2nc(Nc3cc(F)c(OC(C)(C)CCN4CCCC4)c(F)c3)ncc2F)CC(C)(C)N1 [III-48, N2-(3,5-difluoro-4-(2-methyl-4-(pyrrolidin-1-yl)butan-2-yloxy)phenyl)-5-fluoro-N4-(2,2,6,6-tetramethylpiperidin-4-yl)pyrimidine-2,4-diamine]
pIC50: < 6.00

CN1C(C)(C)CC(Nc2nc(Nc3cc(F)c(OC(C)(C)CCN4CCCC4)c(F)c3)ncc2F)CC1(C)C [III-49, N2-(3,5-difluoro-4-(2-methyl-4-(pyrrolidin-1-yl)butan-2-yloxy)phenyl)-5-fluoro-N4-(1,2,2,6,6-pentamethylpiperidin-4-yl)pyrimidine-2,4-diamine]
pIC50: < 6.00

CC1(C)CC(Nc2nc(Nc3ccc(OC4CCN(CCF)CC4)c(OC(F)F)c3)ncc2F)CC(C)(C)N1 [III-50, N2-(3-(difluoromethoxy)-4-(1-(2-fluoroethyl)piperidin-4-yloxy)phenyl)-5-fluoro-N4-(2,2,6,6-tetramethylpiperidin-4-yl)pyrimidine-2,4-diamine]
pIC50: 6.30 to 6.60

CN1C(C)(C)CC(Nc2nc(Nc3ccc(OC4CCN(CCF)CC4)c(OC(F)F)c3)ncc2F)CC1(C)C [III-51, N2-(3-(difluoromethoxy)-4-(1-(2-fluoroethyl)piperidin-4-yloxy)phenyl)-5-fluoro-N4-(1,2,2,6,6-pentamethylpiperidin-4-yl)pyrimidine-2,4-diamine]
pIC50: > 6.60

CN1C(C)(C)CC(Nc2nc(Nc3ccc(OC4CCN(Cc5ccccc5)CC4)c(OC(F)F)c3)ncc2F)CC1(C)C [III-52, N2-(4-(1-benzylpiperidin-4-yloxy)-3-(difluoromethoxy)phenyl)-5-fluoro-N4-(1,2,2,6,6-pentamethylpiperidin-4-yl)pyrimidine-2,4-diamine]
pIC50: 6.30 to 6.60

CC1(C)CC(Nc2nc(Nc3ccc(OC4CCN(CCOCc5ccccc5)CC4)c(F)c3)ncc2F)CC(C)(C)N1 [III-53, N2-(4-(1-(2-(benzyloxy)ethyl)piperidin-4-yloxy)-3-fluorophenyl)-5-fluoro-N4-(2,2,6,6-tetramethylpiperidin-4-yl)pyrimidine-2,4-diamine]
pIC50: 6.00 to 6.30

CN1C(C)(C)CC(Nc2nc(Nc3ccc(OC4CCN(CCOCc5ccccc5)CC4)c(F)c3)ncc2F)CC1(C)C [III-54, N2-(4-(1-(2-(benzyloxy)ethyl)piperidin-4-yloxy)-3-fluorophenyl)-5-fluoro-N4-(1,2,2,6,6-pentamethylpiperidin-4-yl)pyrimidine-2,4-diamine]
pIC50: 6.00 to 6.30

CC1(C)CC(Nc2nc(Nc3cc(F)c(OC4CCN(CCOCc5ccccc5)CC4)c(F)c3)ncc2F)CC(C)(C)N1 [III-55, N2-(4-(1-(2-(benzyloxy)ethyl)piperidin-4-yloxy)-3,5-difluorophenyl)-5-fluoro-N4-(2,2,6,6-tetramethylpiperidin-4-yl)pyrimidine-2,4-diamine]
pIC50: 6.00 to 6.30

CN1C(C)(C)CC(Nc2nc(Nc3cc(F)c(OC4CCN(CCOCc5ccccc5)CC4)c(F)c3)ncc2F)CC1(C)C [III-56, N2-(4-(1-(2-(benzyloxy)ethyl)piperidin-4-yloxy)-3,5-difluorophenyl)-5-fluoro-N4-(1,2,2,6,6-pentamethylpiperidin-4-yl)pyrimidine-2,4-diamine]
pIC50: 6.00 to 6.30

CC1(C)CC(Nc2nc(Nc3ccc(OC4CCN(CCO)CC4)c(F)c3)ncc2F)CC(C)(C)N1 [III-57, 2-(4-(2-fluoro-4-(5-fluoro-4-(2,2,6,6-tetramethylpiperidin-4-ylamino)pyrimidin-2-ylamino)phenoxy)piperidin-1-yl)ethanol]
pIC50: < 6.00

CN1C(C)(C)CC(Nc2nc(Nc3ccc(OC4CCN(CCO)CC4)c(F)c3)ncc2F)CC1(C)C [III-58, 2-(4-(2-fluoro-4-(5-fluoro-4-(1,2,2,6,6-pentamethylpiperidin-4-ylamino)pyrimidin-2-ylamino)phenoxy)piperidin-1-yl)ethanol]
pIC50: 6.00 to 6.30

CC1(C)CC(Nc2nc(Nc3cc(F)c(OC4CCN(CCO)CC4)c(F)c3)ncc2F)CC(C)(C)N1 [III-59, 2-(4-(2,6-difluoro-4-(5-fluoro-4-(2,2,6,6-tetramethylpiperidin-4-ylamino)pyrimidin-2-ylamino)phenoxy)piperidin-1-yl)ethanol]
pIC50: < 6.00

CN1C(C)(C)CC(Nc2nc(Nc3cc(F)c(OC4CCN(CCO)CC4)c(F)c3)ncc2F)CC1(C)C [III-60, 2-(4-(2,6-difluoro-4-(5-fluoro-4-(1,2,2,6,6-pentamethylpiperidin-4-ylamino)pyrimidin-2-ylamino)phenoxy)piperidin-1-yl)ethanol]
pIC50: 6.30 to 6.60

CC(C)Nc1cc(Nc2ncc(F)c(NC3CC(C)(C)NC(C)(C)C3)n2)ccc1OC(C)C [III-61, 5-fluoro-N2-(4-isopropoxy-3-(isopropylamino)phenyl)-N4-(2,2,6,6-tetramethylpiperidin-4-yl)pyrimidine-2,4-diamine]
pIC50: < 6.00

CC(C)Nc1cc(Nc2ncc(F)c(NC3CC(C)(C)N(C)C(C)(C)C3)n2)ccc1OC(C)C [III-62, 5-fluoro-N2-(4-isopropoxy-3-(isopropylamino)phenyl)-N4-(1,2,2,6,6-pentamethylpiperidin-4-yl)pyrimidine-2,4-diamine]
pIC50: < 6.00

Cc1ccc(Nc2ncc(F)c(NC3CC(C)(C)NC(C)(C)C3)n2)cc1-c1nnnn1C [III-63, 5-fluoro-N2-(4-methyl-3-(1-methyl-1H-tetrazol-5-yl)phenyl)-N4-(2,2,6,6-tetramethylpiperidin-4-yl)pyrimidine-2,4-diamine]
pIC50: 6.30 to 6.60

Cc1ccc(Nc2ncc(F)c(NC3CC(C)(C)N(C)C(C)(C)C3)n2)cc1-c1nnnn1C [III-64, 5-fluoro-N2-(4-methyl-3-(1-methyl-1H-tetrazol-5-yl)phenyl)-N4-(1,2,2,6,6-pentamethylpiperidin-4-yl)pyrimidine-2,4-diamine]
pIC50: > 6.60
